# Test results: US20250101023A1, “HETEROARYL DERIVATIVE AND USES THEREOF” (IUCF-HYU (INDUSTRY-UNIVERSITY COOPERATION FOUNDATION …, priority 2022, published 2025)
# Legend:
# CAMK4 = CAMK4 (Homo sapiens (Human), UniProt Q16566); experiment: Kinome-wide profiling; format: biochemical; conditions: read-out: % Residual Activity (mean)
# EPHA1 = EPHA1 (Homo sapiens (Human), UniProt P21709); experiment: Kinome-wide profiling; format: biochemical; conditions: read-out: % Residual Activity (mean)
# LIMK2 = LIMK2 (Homo sapiens (Human), UniProt P53671); experiment: Kinome-wide profiling; format: biochemical; conditions: read-out: % Residual Activity (mean)
# CDK9/cyclin K = CDK9/cyclin K (Homo sapiens (Human), UniProt P50750); experiment: Kinome-wide profiling; format: biochemical; conditions: read-out: % Residual Activity (mean)
# NEK7 = NEK7 (Homo sapiens (Human), UniProt Q8TDX7); experiment: Kinome-wide profiling; format: biochemical; conditions: read-out: % Residual Activity (mean)
# IRAK1 = IRAK1 (Homo sapiens (Human), UniProt P51617); experiment: Kinome-wide profiling; format: biochemical; conditions: read-out: % Residual Activity (mean)
# RSK3 = RSK3 (Homo sapiens (Human), UniProt Q15349); experiment: Kinome-wide profiling; format: biochemical; conditions: read-out: % Residual Activity (mean)
# FES/FPS = FES/FPS (Homo sapiens (Human), UniProt P07332); experiment: Kinome-wide profiling; format: biochemical; conditions: read-out: % Residual Activity (mean)
# IRAK4 = IRAK4 (Homo sapiens (Human), UniProt Q9NWZ3); experiment: Kinome-wide profiling; format: biochemical; conditions: read-out: % Residual Activity (mean)
# PIM3 = PIM3 (Homo sapiens (Human), UniProt Q86V86); experiment: Kinome-wide profiling; format: biochemical; conditions: read-out: % Residual Activity (mean)
# ASK1/MAP3K5 = ASK1/MAP3K5 (Homo sapiens (Human), UniProt Q99683); experiment: Kinome-wide profiling; format: biochemical; conditions: read-out: % Residual Activity (mean)
# MST1/STK4 = MST1/STK4 (Homo sapiens (Human), UniProt Q13043); experiment: Kinome-wide profiling; format: biochemical; conditions: read-out: % Residual Activity (mean)
# CDK5/P25 = CDK5/P25 (Homo sapiens (Human), UniProt Q00535); experiment: Kinome-wide profiling; format: biochemical; conditions: read-out: % Residual Activity (mean)
# CHK2 = CHK2 (Homo sapiens (Human), UniProt O96017); experiment: Kinome-wide profiling; format: biochemical; conditions: read-out: % Residual Activity (mean)
# ROCK1 = ROCK1 (Homo sapiens (Human), UniProt Q13464); experiment: Kinome-wide profiling; format: biochemical; conditions: read-out: % Residual Activity (mean)
# ERN1/IRE1 = ERN1/IRE1 (Homo sapiens (Human), UniProt O75460); experiment: Kinome-wide profiling; format: biochemical; conditions: read-out: % Residual Activity (mean)
# TESK2 = TESK2 (Homo sapiens (Human), UniProt Q96S53); experiment: Kinome-wide profiling; format: biochemical; conditions: read-out: % Residual Activity (mean)
# SYK = SYK (Homo sapiens (Human), UniProt P43405); experiment: Kinome-wide profiling; format: biochemical; conditions: read-out: % Residual Activity (mean)
# MARK4 = MARK4 (Homo sapiens (Human), UniProt Q96L34); experiment: Kinome-wide profiling; format: biochemical; conditions: read-out: % Residual Activity (mean)
# MLK2/MAP3K10 = MLK2/MAP3K10 (Homo sapiens (Human), UniProt Q02779); experiment: Kinome-wide profiling; format: biochemical; conditions: read-out: % Residual Activity (mean)
# MLK1/MAP3K9 = MLK1/MAP3K9 (Homo sapiens (Human), UniProt P80192); experiment: Kinome-wide profiling; format: biochemical; conditions: read-out: % Residual Activity (mean)
# MEK3 = MEK3 (Homo sapiens (Human), UniProt P46734); experiment: Kinome-wide profiling; format: biochemical; conditions: read-out: % Residual Activity (mean)
# EPHA6 = EPHA6 (Homo sapiens (Human), UniProt Q9UF33); experiment: Kinome-wide profiling; format: biochemical; conditions: read-out: % Residual Activity (mean)
# AURORA C = AURORA C (Homo sapiens (Human), UniProt Q9UQB9); experiment: Kinome-wide profiling; format: biochemical; conditions: read-out: % Residual Activity (mean)
# CTK/MATK = CTK/MATK (Homo sapiens (Human), UniProt P42679); experiment: Kinome-wide profiling; format: biochemical; conditions: read-out: % Residual Activity (mean)
# KSR2 = KSR2 (Homo sapiens (Human), UniProt Q6VAB6); experiment: Kinome-wide profiling; format: biochemical; conditions: read-out: % Residual Activity (mean)
# MKK6 = MKK6 (Homo sapiens (Human), UniProt P52564); experiment: Kinome-wide profiling; format: biochemical; conditions: read-out: % Residual Activity (mean)
# LYN = LYN (Homo sapiens (Human), UniProt P07948); experiment: Kinome-wide profiling; format: biochemical; conditions: read-out: % Residual Activity (mean)
# ABL1 = ABL1 (Homo sapiens (Human), UniProt P00519); experiment: Kinome-wide profiling; format: biochemical; conditions: read-out: % Residual Activity (mean)
# LATS1 = LATS1 (Homo sapiens (Human), UniProt O95835); experiment: Kinome-wide profiling; format: biochemical; conditions: read-out: % Residual Activity (mean)
# PKCIOTA = PKCIOTA (Homo sapiens (Human), UniProt P41743); experiment: Kinome-wide profiling; format: biochemical; conditions: read-out: % Residual Activity (mean)
# CAMKK1 = CAMKK1 (Homo sapiens (Human), UniProt Q8N5S9); experiment: Kinome-wide profiling; format: biochemical; conditions: read-out: % Residual Activity (mean)
# RSK1 = RSK1 (Homo sapiens (Human), UniProt Q15418); experiment: Kinome-wide profiling; format: biochemical; conditions: read-out: % Residual Activity (mean)
# [1] = Body weight in SK-Br3 xenograft model; format: in vivo, mouse; conditions: 10 mg/kg and 20 mg/kg, i.p. twice a week
# Description: A mouse efficacy experiment was conducted after obtaining approval from the Laboratory Animal Ethics Committee of GenNBio (Review No.: GN-IACUC-Research 22-02-07). SK-Br3 and HCC-1954 cells (1×10^6 cells each) mixed with Matrigel (BD Biosciences) were […] injected into 5-week-old female Balb/c nude mice (Orient Bio, Seongnam, Republic of Korea). After tumors reached a size of about 100 mm^3, the compound, trastuzumab (20 mg/kg), and the like were intraperitoneally injected into mice (n=8 per group)(vehicle: 8% DMSO, 4% Tween-80, 88% PBS). The tumor size was measured twice weekly for about 4 weeks and calculated as follows. Volume (mm^3)=(a×b^2)/2; “a”, maximum diameter; “b”, vertical diameter
# WNK1 = WNK1 (Homo sapiens (Human), UniProt Q9H4A3); experiment: Kinome-wide profiling; format: biochemical; conditions: read-out: % Residual Activity (mean)
# Chain of WNK1 (Q9H4A3 whole entry): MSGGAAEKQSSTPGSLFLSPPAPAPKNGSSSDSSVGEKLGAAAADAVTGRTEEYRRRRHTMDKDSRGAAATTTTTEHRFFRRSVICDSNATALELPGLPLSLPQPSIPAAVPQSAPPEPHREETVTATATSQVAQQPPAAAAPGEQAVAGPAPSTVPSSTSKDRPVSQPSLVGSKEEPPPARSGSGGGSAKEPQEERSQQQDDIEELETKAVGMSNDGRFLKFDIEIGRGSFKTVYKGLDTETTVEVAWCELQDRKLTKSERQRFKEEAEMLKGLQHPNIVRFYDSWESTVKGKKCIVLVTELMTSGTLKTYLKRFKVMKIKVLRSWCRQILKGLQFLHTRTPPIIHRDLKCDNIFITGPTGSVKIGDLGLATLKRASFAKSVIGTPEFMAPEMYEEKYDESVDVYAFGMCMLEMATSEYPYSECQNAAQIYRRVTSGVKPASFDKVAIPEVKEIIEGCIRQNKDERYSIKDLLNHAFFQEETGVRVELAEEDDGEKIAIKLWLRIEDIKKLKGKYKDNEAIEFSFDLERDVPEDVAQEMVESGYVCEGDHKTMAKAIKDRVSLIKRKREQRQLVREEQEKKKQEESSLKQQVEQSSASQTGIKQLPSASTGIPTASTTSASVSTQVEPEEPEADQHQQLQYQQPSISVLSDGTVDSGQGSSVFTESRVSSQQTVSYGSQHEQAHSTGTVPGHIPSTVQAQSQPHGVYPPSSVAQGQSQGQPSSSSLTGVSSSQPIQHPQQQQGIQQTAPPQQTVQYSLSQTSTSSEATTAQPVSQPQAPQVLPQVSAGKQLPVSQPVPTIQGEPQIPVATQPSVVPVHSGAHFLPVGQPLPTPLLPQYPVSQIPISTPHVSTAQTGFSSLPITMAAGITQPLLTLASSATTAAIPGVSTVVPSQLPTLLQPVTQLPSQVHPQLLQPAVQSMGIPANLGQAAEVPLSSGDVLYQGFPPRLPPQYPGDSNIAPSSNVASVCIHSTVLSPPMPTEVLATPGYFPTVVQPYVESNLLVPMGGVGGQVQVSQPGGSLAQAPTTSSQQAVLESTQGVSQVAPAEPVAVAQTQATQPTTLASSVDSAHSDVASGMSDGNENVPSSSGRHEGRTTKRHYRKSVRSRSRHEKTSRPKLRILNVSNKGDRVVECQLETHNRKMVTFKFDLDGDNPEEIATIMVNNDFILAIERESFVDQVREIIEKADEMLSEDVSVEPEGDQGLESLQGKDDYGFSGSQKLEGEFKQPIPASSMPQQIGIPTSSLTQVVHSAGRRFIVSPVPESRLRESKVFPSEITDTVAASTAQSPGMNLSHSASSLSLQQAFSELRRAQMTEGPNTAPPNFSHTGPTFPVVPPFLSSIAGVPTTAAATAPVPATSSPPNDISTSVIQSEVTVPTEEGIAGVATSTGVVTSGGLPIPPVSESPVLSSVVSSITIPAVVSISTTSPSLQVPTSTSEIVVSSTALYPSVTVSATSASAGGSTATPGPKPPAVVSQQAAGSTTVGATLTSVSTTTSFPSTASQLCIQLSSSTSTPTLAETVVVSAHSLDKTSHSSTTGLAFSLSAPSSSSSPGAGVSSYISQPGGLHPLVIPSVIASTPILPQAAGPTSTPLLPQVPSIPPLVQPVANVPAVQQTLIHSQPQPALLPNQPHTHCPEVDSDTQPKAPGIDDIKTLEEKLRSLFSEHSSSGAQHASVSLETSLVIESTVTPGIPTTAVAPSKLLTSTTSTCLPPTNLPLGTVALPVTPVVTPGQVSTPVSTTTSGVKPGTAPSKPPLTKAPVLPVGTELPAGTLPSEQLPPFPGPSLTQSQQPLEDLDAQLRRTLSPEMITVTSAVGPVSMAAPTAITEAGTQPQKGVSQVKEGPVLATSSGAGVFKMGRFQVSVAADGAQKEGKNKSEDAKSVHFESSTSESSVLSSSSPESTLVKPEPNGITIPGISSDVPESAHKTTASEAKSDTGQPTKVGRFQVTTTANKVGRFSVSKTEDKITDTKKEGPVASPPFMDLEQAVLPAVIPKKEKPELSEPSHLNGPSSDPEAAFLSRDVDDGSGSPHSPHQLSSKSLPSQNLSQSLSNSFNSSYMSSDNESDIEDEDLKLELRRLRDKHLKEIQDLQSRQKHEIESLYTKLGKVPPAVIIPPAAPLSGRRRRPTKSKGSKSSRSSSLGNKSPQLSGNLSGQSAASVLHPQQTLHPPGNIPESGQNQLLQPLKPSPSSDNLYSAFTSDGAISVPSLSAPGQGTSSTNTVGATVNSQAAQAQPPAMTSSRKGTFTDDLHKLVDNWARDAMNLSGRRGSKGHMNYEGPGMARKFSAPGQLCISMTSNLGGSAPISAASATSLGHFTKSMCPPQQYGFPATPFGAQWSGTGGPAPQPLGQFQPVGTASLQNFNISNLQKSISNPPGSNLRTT
# Chain of ABL1 (P00519 whole entry): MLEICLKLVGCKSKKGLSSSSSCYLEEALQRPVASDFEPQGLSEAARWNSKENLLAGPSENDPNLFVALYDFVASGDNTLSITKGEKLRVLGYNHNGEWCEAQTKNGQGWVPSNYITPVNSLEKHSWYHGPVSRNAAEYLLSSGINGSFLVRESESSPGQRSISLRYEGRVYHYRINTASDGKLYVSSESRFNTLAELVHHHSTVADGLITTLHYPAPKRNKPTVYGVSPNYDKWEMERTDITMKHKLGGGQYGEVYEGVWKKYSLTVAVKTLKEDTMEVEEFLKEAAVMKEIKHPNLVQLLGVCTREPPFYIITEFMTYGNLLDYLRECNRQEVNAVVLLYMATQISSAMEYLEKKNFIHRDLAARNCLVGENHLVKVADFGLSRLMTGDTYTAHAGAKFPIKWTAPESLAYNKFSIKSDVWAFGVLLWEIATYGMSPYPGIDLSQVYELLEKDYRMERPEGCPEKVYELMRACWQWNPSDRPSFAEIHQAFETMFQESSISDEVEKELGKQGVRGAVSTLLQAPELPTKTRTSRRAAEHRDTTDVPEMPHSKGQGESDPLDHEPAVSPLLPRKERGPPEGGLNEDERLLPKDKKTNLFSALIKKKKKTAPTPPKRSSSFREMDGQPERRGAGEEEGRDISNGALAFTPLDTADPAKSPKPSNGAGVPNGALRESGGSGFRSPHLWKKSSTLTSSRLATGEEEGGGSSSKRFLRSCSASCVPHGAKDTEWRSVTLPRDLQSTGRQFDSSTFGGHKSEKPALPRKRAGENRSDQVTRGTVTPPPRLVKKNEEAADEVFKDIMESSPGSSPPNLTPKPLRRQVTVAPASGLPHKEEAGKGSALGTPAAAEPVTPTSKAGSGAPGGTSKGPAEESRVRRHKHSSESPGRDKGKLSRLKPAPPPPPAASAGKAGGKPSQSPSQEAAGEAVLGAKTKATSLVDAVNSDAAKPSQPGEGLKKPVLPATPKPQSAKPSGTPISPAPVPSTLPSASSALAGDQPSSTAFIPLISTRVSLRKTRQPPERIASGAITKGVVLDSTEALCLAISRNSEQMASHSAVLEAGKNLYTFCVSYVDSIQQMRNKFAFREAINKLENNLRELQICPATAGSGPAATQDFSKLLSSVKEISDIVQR
# Chain of MLK1/MAP3K9 (P80192 whole entry): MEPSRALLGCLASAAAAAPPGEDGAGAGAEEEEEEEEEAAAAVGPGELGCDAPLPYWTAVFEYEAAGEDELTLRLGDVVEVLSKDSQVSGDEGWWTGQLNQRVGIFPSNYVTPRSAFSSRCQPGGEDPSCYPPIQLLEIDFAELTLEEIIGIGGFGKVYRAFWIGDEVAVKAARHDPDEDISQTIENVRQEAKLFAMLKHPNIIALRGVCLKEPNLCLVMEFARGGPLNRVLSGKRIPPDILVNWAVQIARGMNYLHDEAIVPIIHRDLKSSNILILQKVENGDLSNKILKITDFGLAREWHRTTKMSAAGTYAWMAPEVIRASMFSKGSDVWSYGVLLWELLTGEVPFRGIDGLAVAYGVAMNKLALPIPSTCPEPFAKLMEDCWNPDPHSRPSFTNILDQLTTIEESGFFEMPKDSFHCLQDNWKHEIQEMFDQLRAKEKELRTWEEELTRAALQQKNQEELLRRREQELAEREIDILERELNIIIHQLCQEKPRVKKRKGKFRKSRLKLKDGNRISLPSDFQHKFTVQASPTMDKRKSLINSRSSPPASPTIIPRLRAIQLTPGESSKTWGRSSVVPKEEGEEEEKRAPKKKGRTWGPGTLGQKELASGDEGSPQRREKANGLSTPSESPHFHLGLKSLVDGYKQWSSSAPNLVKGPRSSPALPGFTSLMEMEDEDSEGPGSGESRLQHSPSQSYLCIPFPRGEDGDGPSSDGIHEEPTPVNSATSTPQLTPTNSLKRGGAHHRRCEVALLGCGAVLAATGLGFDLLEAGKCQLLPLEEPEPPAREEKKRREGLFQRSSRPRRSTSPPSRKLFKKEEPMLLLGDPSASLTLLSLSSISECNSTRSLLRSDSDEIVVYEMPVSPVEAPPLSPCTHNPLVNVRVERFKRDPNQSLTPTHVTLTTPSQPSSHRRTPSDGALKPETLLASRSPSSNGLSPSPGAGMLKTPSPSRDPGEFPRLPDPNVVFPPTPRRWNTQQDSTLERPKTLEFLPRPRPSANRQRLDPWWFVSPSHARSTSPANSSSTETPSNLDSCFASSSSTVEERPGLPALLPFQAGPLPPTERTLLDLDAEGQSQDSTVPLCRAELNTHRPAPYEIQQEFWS
# Chain of AURORA C (Q9UQB9 whole entry): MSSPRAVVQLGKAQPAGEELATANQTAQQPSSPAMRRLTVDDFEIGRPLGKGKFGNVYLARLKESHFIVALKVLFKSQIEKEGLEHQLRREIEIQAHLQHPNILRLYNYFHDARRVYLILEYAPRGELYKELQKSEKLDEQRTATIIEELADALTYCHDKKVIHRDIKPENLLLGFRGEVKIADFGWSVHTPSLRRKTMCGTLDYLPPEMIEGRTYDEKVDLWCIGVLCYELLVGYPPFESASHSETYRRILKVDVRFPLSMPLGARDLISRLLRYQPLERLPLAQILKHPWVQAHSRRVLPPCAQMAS
compound,measurement,setting,value
"CCn1cnc2c(NCc3ccc(-c4ccccn4)nc3)nc(-c3ccc(N)nc3)nc21 [Example 53, N-([2,2′-bipyridin]-5-ylmethyl)-2-(6-aminopyridin-3-yl)-9-ethyl-9H-purin-6-amine]",remaining activity at 10 µM,CAMK4,95.2%
same,remaining activity at 10 µM,EPHA1,13.2%
same,remaining activity at 10 µM,LIMK2,76.5%
same,remaining activity at 10 µM,CDK9/cyclin K,1.07%
same,remaining activity at 10 µM,NEK7,93.2%
same,remaining activity at 10 µM,IRAK1,79%
same,remaining activity at 10 µM,RSK3,58%
same,remaining activity at 10 µM,FES/FPS,6.37%
same,remaining activity at 10 µM,IRAK4,94.8%
same,remaining activity at 10 µM,PIM3,86.7%
same,remaining activity at 10 µM,ASK1/MAP3K5,18.4%
same,remaining activity at 10 µM,MST1/STK4,62.2%
same,remaining activity at 10 µM,CDK5/P25,1.6%
same,remaining activity at 10 µM,CHK2,7.39%
same,remaining activity at 10 µM,ROCK1,97.2%
same,remaining activity at 10 µM,ERN1/IRE1,50.8%
same,remaining activity at 10 µM,TESK2,83.7%
same,remaining activity at 10 µM,SYK,48.4%
same,remaining activity at 10 µM,MARK4,66.9%
same,remaining activity at 10 µM,MLK2/MAP3K10,62.3%
same,remaining activity at 10 µM,MLK1/MAP3K9,27.9%
same,remaining activity at 10 µM,MEK3,73.5%
same,remaining activity at 10 µM,EPHA6,3.04%
same,remaining activity at 10 µM,AURORA C,25.5%
same,remaining activity at 10 µM,CTK/MATK,87.6%
same,remaining activity at 10 µM,KSR2,88.4%
same,remaining activity at 10 µM,MKK6,95.4%
same,remaining activity at 10 µM,LYN,65.7%
same,remaining activity at 10 µM,ABL1,61.2%
same,remaining activity at 10 µM,LATS1,85%
same,remaining activity at 10 µM,PKCIOTA,86.1%
same,remaining activity at 10 µM,CAMKK1,18.7%
same,remaining activity at 10 µM,RSK1,59.1%
same,mouse body weight,[1],without any change in mouse weight
same,remaining activity at 10 µM,WNK1,82.5%
